The source of these data is patent US12344584B2, “KCNQ potentiators” (Eli Lilly and Company, priority 2019, dated 2025).

For this assay, the system named is peripheral axons. Nature of the assay: Threshold tracking of peripheral nerve excitability in anesthetized rats. Format: in vivo. As to conditions: rat. As to the method: Threshold Tracking to Measure the Effects of Example 1 at 3.10 and 30 mg/kg IP on Peripheral Nerve Excitability
Threshold tracking is a non-invasive technique that allows measurement of the excitability properties of peripheral axons by providing information about their membrane potential and ion channel function.
16 male Wistar rats from Charles River, weighing between 307-446 g ware used. Animals are group housed with standard housing conditions (4 per cage, 07:00 h to 19:00 h light phase, constant temperature (21° C.) and humidity, and free access to food and water, as well as environmental enrichment).
Rats are anesthetized with isoflurane (2-2.5%, O2 at 0.5 L/min) and then placed on their back on a heating pad to keep the tail temperature above 32° C. The placement of the ring electrodes are marked out and the marked sections of the tail are scraped with a blade to remove hair and the top layer of skin. The sites are cleaned with water and dried, allowing fora good conduction between the skin and the sticky electrodes.
A sticky ring stimulating electrode (+ve anode) is wrapped around the foot. A second sticky ring stimulating electrode (−ve cathode) is wrapped 1.5 cm from the base of the tail. A needle recording electrode is placed just off center on the top of the tail, 6 cm distal to the stimulating cathode at the base of the tail. A needle reference electrode is placed just off center on the top of the tail, 2 cm distal to the recording electrode. A sticky ground electrode is wrapped around the tail 2 cm proximal from the recording electrode.
• Start the Multitrack program (description below) and Spike. • Record 15 min of stable baseline • After the 15 min, dose with Example 1 or HEC • Take blood spot for PK at the following: • 10 min post dose • 20 min post dose • 30 min post dose • 40 min post dose • 45 min after IP (intraperitoneal) dosing with Example 1, dose XE-991 (XE-991 is a commercially available compound that blocks KCNQ potentiator effects in a formalin assay in vivo—see Y. Zheng, et al., “Activation of peripheral KCNQ channels relieves gout pain,” Pain, 156 (2015) 1025-1035; and R. Zaczek, et al., “Two New Potent Neurotransmitter Release Enhancers, 10,10-Bis(4-Pyridinylmethyl)-9(10H)-Anthracenone and 10,10-Bis(2-Fluoro-4-Pyridinylmethyl)-9(10H)-Anthracenone: Comparison to Linopirdine” The Journal of Pharmacology and Experimental Therapeutics, 285:724-730, 1998. • (XE-991 is only dosed after Example 1 at 30 mg/kg) • Take blood spot for PK at the following: • 10 min post dose (55 min post Example 1 administration) • 20 min post dose (65 min post Example 1 administration) • 30 min post dose (75 min post Example 1 administration) • 40 min post dose (85 min post Example 1 administration)
In threshold tracking assay to measure the excitability properties of peripheral axons studies in rat, compound is administered by IP at 3, 10 or 30 mg/kg using 1% hydroxyethylcellulose: 0.25% polysorbate 80:0.05% antifoam:purified water (HEC) formulation. Dry blood spots (DBS) are collected around 10, 20, 30 and terminal 40 min post-dose. DBS samples are dried at RT for around 2 h. Brain samples are obtained at terminal time point and frozen until analysis. DBS samples are shipped and stored at RT.

Regarding `CC(C)(C)[C@H](O)CNC(=O)NCc1ccnc(OCC(F)(F)F)c1` [Example 1, 1-[(2S)-2-hydroxy-3,3-dimethyl-butyl]-3-[[2-(2,2,2-trifluoroethoxy)-4-pyridyl]methyl]urea], the “Threshold Tracking absolute threshold for 40% CMAP (±SEM)” value is reported as 121 (±10) % baseline (3 mg/kg (IP)), 140 (±8) % baseline (10 mg/kg (IP)) and 160 (±18) % baseline (30 mg/kg (IP)). The “absolute threshold compared with vehicle” value (30 mg/kg IP, Bonferroni multiple comparisons test) was “significantly increased absolute threshold”.
